Values joined by “and” are separate entries in the source; they are usually repeats but may differ in a detail not shown here. Equal entries are not always repeated. Where two headings read alike, the source gives them in different places.
Experiments:
[1] = test system: HRV-C15; test: Viral genome copy number (quantitative RT-PCR of apical washes) in HRV-C15-infected MucilAir nasal epithelia (Examples 1 and 3); format: cell-based, human rhinovirus; conditions: for effect on RV-C15 replication (in words): rupintrivir basal, comparison of fucoidan sources
[2] = test system: MucilAir nasal human 3D Epithelial model; conditions: Examples 2 and 4 (RSV A experiments); all measured timepoints
[3] = test system: Interleukin 8 (IL-8); test: Interleukin 8 release into basal medium (ELISA); format: cell-based, human
[4] = test system: HRV-A16; test: Viral genome copy number (quantitative RT-PCR of apical washes) in HRV-A16-infected MucilAir nasal epithelia (Example 5); format: cell-based, human rhinovirus; conditions: twice daily apical, rupintrivir 5 μM basal
[5] = test system: HRV-B14; test: Viral genome copy number (quantitative RT-PCR of apical washes) in HRV-B14-infected MucilAir nasal epithelia (Example 6); format: cell-based, human rhinovirus; conditions: for Mean Log 10 ((Copies/ml) + 1), viral genome copy number: 5 μM, positive antiviral control
[6] = test system: RANTES; test: RANTES release into basal medium (ELISA); format: cell-based, human
[7] = test system: MucilAir nasal human 3D Epithelial model
[8] = test system: respiratory syncytial virus A; format: cell-based; conditions: RSV A
[9] = test system: MucilAir nasal human 3D Epithelial model; test: Mucociliary clearance (MCC), bead velocity; format: cell-based; conditions: Example 4; day 4; once or twice daily; ribavirin basal
[10] = test system: MucilAir nasal human 3D Epithelial model; test: Cilia beating frequency (CBF); format: cell-based; conditions: Example 4; day 4; once or twice daily; ribavirin basal
[11] = Example 4, once or twice daily (25 μg Test UP: see once daily exception), ribavirin basal

## CCOC(=O)/C=C/[C@H](C[C@@H]1CCNC1=O)NC(=O)[C@@H](CC(=O)[C@@H](NC(=O)c1cc(C)on1)C(C)C)Cc1ccc(F)cc1 [Rupintrivir]
[1]; Example 1, HRV-C15, 3.5 hours post infection, AP apical / BL basal as in label, rupintrivir 5 μM basal, 0.00 = below detection limit
  Mean viral genome copy number: 0.00 Log 10 ((Copies/ml) + 1)
[1]; Example 1, HRV-C15, 24 hours post infection, AP apical / BL basal as in label, rupintrivir 5 μM basal, 0.00 = below detection limit
  Mean viral genome copy number: 5.57 Log 10 ((Copies/ml) + 1)
[1]; Example 1, HRV-C15, 48 hours post infection, AP apical / BL basal as in label, rupintrivir 5 μM basal
  Mean viral genome copy number: 6.46 Log 10 ((Copies/ml) + 1)
[1]; Example 1, HRV-C15, 72 hours post infection, AP apical / BL basal as in label, rupintrivir 5 μM basal
  Mean viral genome copy number: 6.69 Log 10 ((Copies/ml) + 1)
[1]; Example 1, HRV-C15, 96 hours post infection, AP apical / BL basal as in label, rupintrivir 5 μM basal
  Mean viral genome copy number: 7.17 Log 10 ((Copies/ml) + 1)
[1]; Example 1, HRV-C15, rupintrivir 5 μM basal, on average
  decrease of the viral load: two
[1]; Example 3
  effect on RV-C15 replication (in words): most effective inhibitor of RV-C15 replication
[1]; Example 3, listed as rupintrivir
  effect on RV-C15 replication (in words): significantly reduced viral genome copy number
[2]
  cytotoxicity (LDH, Triton X-100 = 100%): below 5%
[3]; Example 1, HRV-C15-inoculated inserts, day 4 post infection
  effect on RV-C15 induced IL-8 release (in words): prevented
[3]; Example 2, RSV A-inoculated inserts, day 2 and day 4 as stated
  effect on RSV A induced IL-8 release (in words): prevented
[4]; 3.5 hours post infection, 0.00 = below detection limit
  Mean viral genome copy number: 0.00 Log 10 ((Copies/ml) + 1)
[4]; 24 hours post infection, 0.00 = below detection limit
  Mean viral genome copy number: 0.00 Log 10 ((Copies/ml) + 1)
[4]; 48 hours post infection, 0.00 = below detection limit
  Mean viral genome copy number: 4.70 Log 10 ((Copies/ml) + 1)
[4]; 72 hours post infection, 0.00 = below detection limit
  Mean viral genome copy number: 5.30 Log 10 ((Copies/ml) + 1)
[4]; 96 hours post infection
  Mean viral genome copy number: 3.77 Log 10 ((Copies/ml) + 1)
[5]; time 3.5 h
  Mean Log 10 ((Copies/ml) + 1), viral genome copy number: 0.00 Log 10 ((Copies/ml) + 1)
[5]; time 24 h
  Mean Log 10 ((Copies/ml) + 1), viral genome copy number: 3.65 Log 10 ((Copies/ml) + 1)
[5]; time 48 h
  Mean Log 10 ((Copies/ml) + 1), viral genome copy number: 4.23 Log 10 ((Copies/ml) + 1)
[5]; time 72 h
  Mean Log 10 ((Copies/ml) + 1), viral genome copy number: 4.26 Log 10 ((Copies/ml) + 1)
[5]; time 96 h
  Mean Log 10 ((Copies/ml) + 1), viral genome copy number: 0.00 Log 10 ((Copies/ml) + 1)
[5]; RV-B14, Day 4
  detection of virus (in words): no more virus was detected
[6]; Example 3, RV-C15, rupintrivir basal
  effect on virus-induced increase of RANTES release (in words): effectively prevented the virus-induced increase of RANTES release
[7]; Example 1, HRV-C15-inoculated inserts, apical or basal as in label
  effect on HRV-C15 induced transient TEER decrease (in words): prevented this transient TEER decrease
[7]; Example 3, HRV-C15-inoculated inserts
  TEER of inoculated inserts: above 100 Ω·cm^2

## NC(=O)c1ncn([C@@H]2O[C@H](CO)[C@@H](O)[C@H]2O)n1 [Ribavirin, ribavirin]
[8]; Example 2, 3.5 hours post infection, AP apical / BL basal as in label, ribavirin 100 uM basal, 0.00 = below detection limit
  Mean viral genome copy number: 5.63 Log 10 ((Copies/ml) + 1) and 3.52 Log 10 ((Copies/ml) + 1)
[8]; Example 2, 24 hours post infection, AP apical / BL basal as in label, ribavirin 100 uM basal, 0.00 = below detection limit
  Mean viral genome copy number: 6.48 Log 10 ((Copies/ml) + 1) and 10.22 Log 10 ((Copies/ml) + 1)
[8]; Example 2, 48 hours post infection, AP apical / BL basal as in label, ribavirin 100 uM basal
  Mean viral genome copy number: 7.07 Log 10 ((Copies/ml) + 1) and 11.46 Log 10 ((Copies/ml) + 1)
[8]; Example 2, 72 hours post infection, AP apical / BL basal as in label, ribavirin 100 uM basal
  Mean viral genome copy number: 7.78 Log 10 ((Copies/ml) + 1) and 10.33 Log 10 ((Copies/ml) + 1)
[8]; Example 2, 96 hours post infection, AP apical / BL basal as in label, ribavirin 100 uM basal
  Mean viral genome copy number: 8.32 Log 10 ((Copies/ml) + 1) and 9.09 Log 10 ((Copies/ml) + 1)
[8]; Example 2, ribavirin 100 μM basal
  decrease of the viral load: 3 logs
[8]; Example 4, 3.5 hours post infection, first block of Table 12, 1x (once daily apical), ribavirin 100 μM basal
  Mean viral genome copy number: 6.76 Log 10 ((Copies/ml) + 1)
[8]; Example 4, 3.5 hours post infection, second block of Table 12, head prints 1x, ribavirin 100 μM basal
  Mean viral genome copy number: 6.76 Log 10 ((Copies/ml) + 1)
[8]; Example 4, 24 hours post infection, first block of Table 12, 1x (once daily apical), ribavirin 100 μM basal
  Mean viral genome copy number: 7.06 Log 10 ((Copies/ml) + 1)
[8]; Example 4, 24 hours post infection, second block of Table 12, head prints 1x, ribavirin 100 μM basal
  Mean viral genome copy number: 7.06 Log 10 ((Copies/ml) + 1)
[8]; Example 4, 48 hours post infection, first block of Table 12, 1x (once daily apical), ribavirin 100 μM basal
  Mean viral genome copy number: 6.79 Log 10 ((Copies/ml) + 1)
[8]; Example 4, 48 hours post infection, second block of Table 12, head prints 1x, ribavirin 100 μM basal
  Mean viral genome copy number: 6.79 Log 10 ((Copies/ml) + 1)
[8]; Example 4, 72 hours post infection, first block of Table 12, 1x (once daily apical), ribavirin 100 μM basal
  Mean viral genome copy number: 7.40 Log 10 ((Copies/ml) + 1)
[8]; Example 4, 72 hours post infection, second block of Table 12, head prints 1x, ribavirin 100 μM basal
  Mean viral genome copy number: 7.40 Log 10 ((Copies/ml) + 1)
[8]; Example 4, 96 hours post infection, first block of Table 12, 1x (once daily apical), ribavirin 100 μM basal
  Mean viral genome copy number: 8.89 Log 10 ((Copies/ml) + 1)
[8]; Example 4, 96 hours post infection, second block of Table 12, head prints 1x, ribavirin 100 μM basal
  Mean viral genome copy number: 8.89 Log 10 ((Copies/ml) + 1)
[1]; Example 3, HRV-C15, 3.5 hours post infection, 1x (once daily apical), positive control basal, 0.00 = below detection limit
  Mean viral genome copy number: 0.00 Log 10 ((Copies/ml) + 1)
[1]; Example 3, HRV-C15, 3.5 hours post infection, 2x (twice daily apical), positive control basal, 0.00 = below detection limit
  Mean viral genome copy number: 0.00 Log 10 ((Copies/ml) + 1)
[1]; Example 3, HRV-C15, 24 hours post infection, 1x (once daily apical), positive control basal
  Mean viral genome copy number: 5.14 Log 10 ((Copies/ml) + 1)
[1]; Example 3, HRV-C15, 24 hours post infection, 2x (twice daily apical), positive control basal
  Mean viral genome copy number: 5.14 Log 10 ((Copies/ml) + 1)
[1]; Example 3, HRV-C15, 48 hours post infection, 1x (once daily apical), positive control basal
  Mean viral genome copy number: 7.63 Log 10 ((Copies/ml) + 1)
[1]; Example 3, HRV-C15, 48 hours post infection, 2x (twice daily apical), positive control basal
  Mean viral genome copy number: 7.63 Log 10 ((Copies/ml) + 1)
[1]; Example 3, HRV-C15, 72 hours post infection, 1x (once daily apical), positive control basal
  Mean viral genome copy number: 6.89 Log 10 ((Copies/ml) + 1)
[1]; Example 3, HRV-C15, 72 hours post infection, 2x (twice daily apical), positive control basal
  Mean viral genome copy number: 6.89 Log 10 ((Copies/ml) + 1)
[1]; Example 3, HRV-C15, 96 hours post infection, 1x (once daily apical), positive control basal
  Mean viral genome copy number: 6.24 Log 10 ((Copies/ml) + 1)
[1]; Example 3, HRV-C15, 96 hours post infection, 2x (twice daily apical), positive control basal
  Mean viral genome copy number: 6.24 Log 10 ((Copies/ml) + 1)
[9]
  effect on RSV A induced MCC reduction (in words): attenuated this RSV A induced MCC reduction
[3]; [11]
  effect on RSV A induced IL-8 release (in words): prevented the RSV A induced IL-8 release
[6]; [11]
  effect on RSV A-induced RANTES release (in words): effectively prevented the virus-induced increase of RANTES release
[7]; Example 4, RSV A-inoculated inserts, once or twice daily, ribavirin basal
  TEER of inoculated inserts (in words): TEER values similar to that of the mock inserts
[10]
  effect on RSV A induced cilia impairment (in words): prevented

## Polyethylene glycol tert-octyl phenyl ether [Triton X-100]
[7]; positive control for cytotoxicity, 10% (v/v) in normal saline, 50 μl apically, Examples 1 to 4
  TEER: below 100 Ω·cm^2

— patent US20230241098A1, “ANTIVIRAL PHARMACEUTICAL COMPOSITION” (priority 2020, published 2023)
